Source: patent publication US9206165B2, “Tetrazolo hydrazine derivatives and pharmaceutical composition comprising same as active ingredient for preventing or treating cancer” (INDUSTRY-ACADEMIC COOPERATION FOUNDATION, YEUNGNAM …, priority 2012, dated 2015)

What was measured:
[1] = system: MCF-7, MDA-Mb-231 and Zr-75 cell lines; experiment: In vitro anti-cancer activity in human breast cancer cell lines, MTT (statements pooled over the three lines); assay type: cell-based; conditions: 1×10^−5, 1×10^−6 and 1×10^−7 M, 48 h
Protocol: (§1) Anti-cancer activities of the compounds f1-f15 on human breast cancer cell line were tested in ER positive (MCF-7) and […] cell lines. The human breast cancer cell lines MCF-7 and MDA-MB-231 were cultured in Dulbecco's Modified Eagle's Medium (DMEM) supplemented with 10% fetal bovine serum (FBS) (HyClone Laboratories, Logan, Utah, USA) and 1% penicillin: streptomycin (Invitrogen, Carlsbad, Calif., USA) in 12 well plates. The test compounds f1-f15 were dissolved in DMSO and one microliter of the stock solution was used per milliliter of the culture to make a working concentration1 1×10^−5, 1×10^−6 and 1×10^−7 M. Each test includes control wells. The cell suspension was diluted to 1×10^4 cells/mL by adding fresh medium, and 1 mL of this suspension was added to the test and control wells. The plates were incubated at 37° C. under CO2 for 24 h. After incubation, the culture media was changed and cells were treated with […] of stock solution. Cells were incubated at 37° C. under CO2 for 48 h. The growth of the cells was checked with a low power microscope and MTT assay was used to confirm the viability. In the similar experiments, the ZR-75 cells were grown in RPMI 1640 (HyClone Laboratories, Logan, Utah, USA) supplemented with 10% fetal bovine serum (FBS) (HyClone Laboratories, Logan, Utah, USA) and 1% penicillin: streptomycin (Invitrogen, Carlsbad, Calif., USA).
(§2) The results for each compound are reported as percent growth (GP %) of treated cells compared to untreated controls. The inhibitory effects were detectable in compounds 2, 8, 10, 12 and 14 among the compounds f1-f15. […] The percent growth inhibition of compounds varied not only with the substituent groups but also with the nature of the cell line.

MCF-7 cells = experiment: In vitro anti-cancer activity, MTT, MCF-7; assay type: cell-based, human; conditions: ER positive MCF-7; FIG. 2
Protocol: as §1, §2

[2] = system: breast cancer marker genes in MCF-7 cells; experiment: Gene expression analysis by real time RT-PCR in MCF-7 cells; assay type: cell-based, human; conditions: mRNA
Protocol: (§3) To investigate the various effects of various cell lines, the expression levels of different breast cancer marker genes were tested after treating the compounds.
(§4) Total RNA was extracted from the cells using Trizol™ reagent, stored in diethylpyrocarbonate-treated water at −80° C. until use. Total 2 μg of RNA was used for cDNA synthesis. All the primer used in examples of the present invention were designed with Primer 3 software (http://frodo.wi.mit.edu) using sequence information listed at NCBI. Following conditions were applied for the RT-PCR: pre-denaturation of the synthesized cDNA at 95° C. for 10 min followed by 40 cycles of denaturation at 95° C. for 33 s, annealing at each gene-specific primer Tm (° C.), and extension at 72° C. for 33 s. 1.2% of the agarose gel electrophoresis were used to verify the purity of the amplified genes.

[3] = system: breast cancer marker genes in MDA-MB-231 cells; experiment: Gene expression analysis by real time RT-PCR in MDA-MB-231 cells; assay type: cell-based, human; conditions: mRNA
Protocol: as §3, §4

MDA-MB-231 cell line = experiment: In vitro anti-cancer activity, MTT, MDA-MB-231; assay type: cell-based, human; conditions: ER negative MDA-MB-231; FIG. 2
Protocol: as §1, with “In the similar experiments, the ZR-75 cells were grown in RPMI 1640 (HyClone Laboratories, Logan, Utah, USA) supplemented with 10% fetal bovine serum (FBS) (HyClone Laboratories, Logan, Utah, USA) and 1% penicillin: streptomycin (Invitrogen, Carlsbad, Calif., USA).” left out

ZR-75 cell line = experiment: In vitro anti-cancer activity, MTT, ZR-75; assay type: cell-based, human; conditions: ER negative ZR-75; FIG. 2
Protocol: as §1, with “In the similar experiments, the ZR-75 cells were grown in RPMI 1640 (HyClone Laboratories, Logan, Utah, USA) supplemented with 10% fetal bovine serum (FBS) (HyClone Laboratories, Logan, Utah, USA) and 1% penicillin: streptomycin (Invitrogen, Carlsbad, Calif., USA).” left out

| SMILES | melting point | anti-proliferative activity / inhibitory effects ([1]; FIG. 2) | expression of BAX ([2]; FIG. 3) | expression of CD44 ([2]; FIG. 3) | expression of BRAC-1 ([3]; FIG. 4) | also measured |
| --- | --- | --- | --- | --- | --- | --- |
| Cc1ccc(C=NNC(=O)Cn2nnnc2-c2ccc3c(c2)OCO3)cc1 [f6, 2-[5-(1,3-benzodioxol-5-yl)-1H-tetrazol-1-yl]-N′-[(4-methylphenyl)methylidene]acetohydrazide] | 203 to 205 °C | – | – | – | – | – |
| O=C(Cn1nnnc1-c1ccc2c(c1)OCO2)NN=Cc1ccccc1 [f5, 2-[5-(1,3-benzodioxol-5-yl)-1H-tetrazol-1yl]-N′-[phenylmethylidene]acetohydrazide] | 204 to 206 °C | – | – | – | – | – |
| O=C(Cn1nnnc1-c1ccc2c(c1)OCO2)NN=Cc1ccccc1[N+](=O)[O-] [f10, 2-[5-(1,3-benzodioxol-5-yl)-1H-tetrazol-1yl]-N′-[(2-nitrophenyl)methylidene]acetohydrazide] | 210 to 212 °C | excellent anti-proliferative activity | increased more than two fold | increased | a minimum of two folds decrease | anti-proliferative activity / inhibitory effects ([1]; FIG. 2, listed as 10): detectable; anti-proliferative effects on MCF-7 cells growth (MCF-7 cells): more anti-proliferative effects; expression of CD44 ([2]; FIG. 3, listed as 10): increased about two fold |
| CCOc1ccc(C=NNC(=O)Cn2nnnc2-c2ccc3c(c2)OCO3)cc1 [f3, 2-[5-(1,3-benzodioxol-5-yl)-1H-tetrazol-1-yl]-N′-[(4-ethoxyphenyl)methylidene]acetohydrazide] | 208 to 210 °C | – | – | – | – | – |
| CCOc1ccccc1C=NNC(=O)Cn1nnnc1-c1ccc2c(c1)OCO2 [f7, 2-[5-(1,3-benzodioxol-5-yl)-1H-tetrazol-1-yl]-N′-[(2-ethoxyphenyl)methylidene]acetohydrazide] | 196 to 198 °C | – | – | – | – | – |
| O=C(Cn1nnnc1-c1ccc2c(c1)OCO2)NN=Cc1ccc(Cl)cc1 [f1, 2-[5-(1,3-benzodioxol-5-yl)-1H-tetrazol-1-yl]-N′-[4-chlorophenyl-methylidene]acetohydrazide] | 206 to 208 °C | – | – | – | – | – |
| O=C(Cn1nnnc1-c1ccc2c(c1)OCO2)NN=Cc1ccccc1Cl [f2, 2-[5-(1,3-benzodioxol-5-yl)-1H-tetrazol-1-yl]-N′-[(2-chlorophenyl)methylidene]acetohydrazide] | 198 to 200 °C | excellent anti-proliferative activity | increased more than two fold | increased | a minimum of two folds decrease | anti-proliferative activity / inhibitory effects ([1]; FIG. 2, listed as 2): detectable |
| COc1ccc(C=NNC(=O)Cn2nnnc2-c2ccc3c(c2)OCO3)cc1OC [f8, 2-[5-(1,3-benzodioxol-5-yl)-1H-tetrazol-1-yl]-N′-[(3,4-dimethoxyphenyl)methylidene]acetohydrazide] | 200 to 202 °C | excellent anti-proliferative activity | increased more than two fold | increased | a minimum of two folds decrease | anti-proliferative activity / inhibitory effects ([1]; FIG. 2, listed as 8): detectable; anti-proliferative effects in MDA-MB-231 (MDA-MB-231 cell line): more anti-proliferative effects; anti-proliferative effects in ZR-75 (ZR-75 cell line): more anti-proliferative effects; expression of CD44 ([2]; FIG. 3, listed as 8): increased about two fold; expression of BRAC-1 ([3]; FIG. 4, listed as 8): highly suppressed |
| COc1ccc(C=NNC(=O)Cn2nnnc2-c2ccc3c(c2)OCO3)cc1 [f4, 2-[5-(1,3-benzodioxol-5-yl)-1H-tetrazol-1-yl]-N′-[(4-methoxyphenyl)methylidene]acetohydrazide] | 198 to 200 °C | – | – | – | – | – |

Continued, in another order:

| melting point | SMILES | anti-proliferative activity / inhibitory effects ([1]; FIG. 2) | expression of BAX ([2]; FIG. 3) | expression of CD44 ([2]; FIG. 3) | expression of BRAC-1 ([3]; FIG. 4) | also measured |
| --- | --- | --- | --- | --- | --- | --- |
| 212 to 214 °C | O=C(Cn1nnnc1-c1ccc2c(c1)OCO2)NN=Cc1ccco1 [f13, 2-[5-(1,3-benzodioxol-5-yl)-1H-tetrazol-1-yl]-N′-[furan-2-ylmethylidene]acetohydrazide] | – | – | – | – | – |
| 208 to 210 °C | O=C(Cn1nnnc1-c1ccc2c(c1)OCO2)NN=Cc1cccc([N+](=O)[O-])c1 [f12, 2-[5-(1,3-benzodioxol-5-yl)-1H-tetrazol-1yl]-N′-[(3-nitrophenyl)methylidene]acetohydrazide] | excellent anti-proliferative activity | increased more than two fold | increased | a minimum of two folds decrease | anti-proliferative activity / inhibitory effects ([1]; FIG. 2, listed as 12): detectable; anti-proliferative effects on MCF-7 cells growth (MCF-7 cells): more anti-proliferative effects |
| 200 to 202 °C | CCc1ccc(C=NNC(=O)Cn2nnnc2-c2ccc3c(c2)OCO3)cc1 [f11, 2-[5-(1,3-benzodioxol-5-yl)-1H-tetrazol-1-yl]-N′-[(4-ethylphenyl)methylidene]acetohydrazide] | – | – | – | – | – |
| 204 to 206 °C | O=C(Cn1nnnc1-c1ccc2c(c1)OCO2)N/N=C/c1ccc([N+](=O)[O-])cc1 [f14, 2-[5-(1,3-benzodioxol-5-yl)-1H-tetrazol-1-yl]-N′-[(E)-(4-nitrophenyl)methylidene]acetohydrazide] | excellent anti-proliferative activity | increased more than two fold | increased | a minimum of two folds decrease | anti-proliferative activity / inhibitory effects ([1]; FIG. 2, listed as 14): detectable; anti-proliferative effects on MCF-7 cells growth (MCF-7 cells): more anti-proliferative effects |
